In patent US10898481B2 (priority 2018, dated 2021) one finds IC50 data, which are given here for 16 molecules.

Structures are written as SMILES. Where two headings read alike, the source gives them in different places. Some results are limits rather than exact numbers.

Assay [1] addresses hADORA1/CHO (hA1 expressing) cells (Homo sapiens (Human), UniProt P30542). Nature of the assay: cell-based. Conditions: 10 μM adenosine.
The next assay addresses hA2a/CHO (Homo sapiens (Human), UniProt P29274). Description: cAMP inhibition assay in hA2a/CHO cells, 10 μM adenosine.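 Further: compounds added to cells 30 min ahead of adenosine, then a further 30 min at 37 °C with adenosine before cAMP detection.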 Type of assay: cell-based.
The target in a further assay is mA2a/CHO (Mus musculus (Mouse), UniProt Q60613). Description: cAMP inhibition assay in mA2a/CHO cells, 10 μM adenosine.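 Further: compounds preincubated 30 min at 37 °C before the adenosine challenge, then 30 min further stimulation, readout after 60 min detection reagent incubation at room temperature in 384-well plates.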 The assay is classed as cell-based.
For the next assay, the target named is hA2b/CHO (Homo sapiens (Human), UniProt P29275). Nature of the assay: cAMP inhibition assay in hA2b/CHO cells, 10 μM adenosine.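 Further: cells exposed to compound 30 min at 37 °C, then stimulated with adenosine a further 30 min, cAMP read after 60 min at room temperature.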 The assay is classed as cell-based.
Setting [2] is: FLIPR inhibition, read-out: cAMP & FLIPR IC50 (nM) hA1.
Setting [3] is: read-out: cAMP & FLIPR IC50 (nM) hA2a.
Where [4] appears, read: read-out: cAMP & FLIPR IC50 (nM) mA2a.
Where [5] appears, read: read-out: cAMP & FLIPR IC50 (nM) hA2b.

Sequence of hADORA1/CHO (hA1 expressing) cells (P30542 whole entry): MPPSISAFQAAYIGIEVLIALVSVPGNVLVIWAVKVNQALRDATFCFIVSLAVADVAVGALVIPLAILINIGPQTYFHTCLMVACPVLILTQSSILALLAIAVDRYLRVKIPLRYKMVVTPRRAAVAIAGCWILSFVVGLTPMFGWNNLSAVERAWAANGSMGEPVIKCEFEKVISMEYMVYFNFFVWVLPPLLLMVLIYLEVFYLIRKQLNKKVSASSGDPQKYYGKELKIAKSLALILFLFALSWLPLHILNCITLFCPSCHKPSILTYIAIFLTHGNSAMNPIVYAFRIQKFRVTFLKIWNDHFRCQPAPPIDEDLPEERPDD
Sequence of mA2a/CHO (Q60613 whole entry): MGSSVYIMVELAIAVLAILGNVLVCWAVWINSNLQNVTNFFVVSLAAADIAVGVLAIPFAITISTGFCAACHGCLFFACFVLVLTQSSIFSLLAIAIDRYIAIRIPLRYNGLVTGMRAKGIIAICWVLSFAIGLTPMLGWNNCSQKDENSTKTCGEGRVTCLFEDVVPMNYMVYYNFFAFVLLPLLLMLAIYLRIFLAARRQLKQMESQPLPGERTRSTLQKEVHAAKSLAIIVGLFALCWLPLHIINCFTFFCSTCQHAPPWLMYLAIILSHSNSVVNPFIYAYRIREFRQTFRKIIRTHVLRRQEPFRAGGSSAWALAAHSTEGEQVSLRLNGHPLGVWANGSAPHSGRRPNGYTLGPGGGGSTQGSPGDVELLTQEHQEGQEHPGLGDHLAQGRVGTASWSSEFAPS
Sequence of hA2b/CHO (P29275 whole entry): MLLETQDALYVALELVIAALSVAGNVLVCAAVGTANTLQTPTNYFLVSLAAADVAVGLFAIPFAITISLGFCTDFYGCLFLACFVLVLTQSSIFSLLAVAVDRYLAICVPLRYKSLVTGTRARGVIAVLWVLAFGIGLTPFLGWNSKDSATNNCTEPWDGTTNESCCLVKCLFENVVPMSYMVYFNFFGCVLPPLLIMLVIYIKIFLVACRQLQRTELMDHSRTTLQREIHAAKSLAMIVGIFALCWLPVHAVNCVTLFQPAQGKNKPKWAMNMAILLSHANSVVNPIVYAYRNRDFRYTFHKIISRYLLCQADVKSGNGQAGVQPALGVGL
Sequence of hA2a/CHO (P29274 whole entry): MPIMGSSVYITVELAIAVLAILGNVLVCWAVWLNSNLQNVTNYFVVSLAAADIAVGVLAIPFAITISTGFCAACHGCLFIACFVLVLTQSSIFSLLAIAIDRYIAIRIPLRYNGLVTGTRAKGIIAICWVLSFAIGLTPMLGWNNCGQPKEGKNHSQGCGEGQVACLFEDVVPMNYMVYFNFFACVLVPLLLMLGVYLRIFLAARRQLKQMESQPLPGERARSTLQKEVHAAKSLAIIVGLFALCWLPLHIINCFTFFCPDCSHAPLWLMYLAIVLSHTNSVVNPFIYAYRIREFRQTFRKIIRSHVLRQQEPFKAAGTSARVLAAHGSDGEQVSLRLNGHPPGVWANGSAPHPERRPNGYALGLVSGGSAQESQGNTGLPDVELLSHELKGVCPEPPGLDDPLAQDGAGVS
Description for hA2a/CHO: (§1) hA2a/CHO, hA2b/CHO, hA3/CHO and mA2a/CHO (Genscript) were plated at 5×10^3 cells/well into 384-well polystyrene plates at the day of experiment. Compounds were pre-incubated with cells for 30 min at 37° C., 5% CO2. Then 10 μM adenosine was added to the cells and incubated for 30 min at 37° C., 5% CO2. Detection reagent (CISBIO) was added and the plates were incubated for 60 min at room temperature. The signal was captured by Envision.
Description for hA2b/CHO: as §1
Description for mA2a/CHO: as §1

`Cn1cc(-c2nc(C(=O)NCc3c(F)cccc3OC(F)F)c(N)nc2-c2ccc(F)cc2)ccc1=O` [Example 73, 3-amino-N-(2-(difluoromethoxy)-6-fluorobenzyl)-5-(4-fluorophenyl)-6-(1-methyl-6-oxo-1,6-dihydropyridin-3-yl) pyrazine-2-carboxamide]: the concentration for half-maximal inhibition (IC50) in assay [1] (setting [2]) was 20 nM; on hA2a/CHO (setting [3]) it was 0.4 nM; on mA2a/CHO (setting [4]), 4.2 nM; on hA2b/CHO (setting [5]), 8.1 nM.

With `COCCOc1cccnc1CNC(=O)c1nc(-c2ccc3ncn(C)c3c2)c(-c2ccc(F)cc2)nc1N` [Example 114, 3-amino-5-(4-fluorophenyl)-N-[[3-(2-methoxyethoxy)pyridin-2-yl]methyl]-6-(1-methyl-1H-1,3-benzodiazol-6-yl)pyrazine-2-carboxamide], the IC50 in assay [1] (setting [2]) came out at 83 nM; at hA2a/CHO (setting [3]), 0.7 nM; on mA2a/CHO (setting [4]), 1.5 nM; at hA2b/CHO (setting [5]), 170 nM.

With `Cc1cnc2ccc(-c3nc(C(=O)NCC4CCC(=O)N4C)c(N)nc3-c3ncco3)cn12` (racemic) [Example 212, rac-3-amino-N-((1-methyl-5-oxopyrrolidin-2-yl)methyl)-6-(3-methylimidazo [1,2-a]pyridin-6-yl)-5-(oxazol-2-yl) pyrazine-2-carboxamide], the half-maximal inhibitory concentration (IC50) in assay [1] (setting [2]) is greater than 10000 nM; on hA2a/CHO (setting [3]), 34 nM; on mA2a/CHO (setting [4]) it was 175 nM; on hA2b/CHO (setting [5]), 3430 nM.

Turning to `Cc1cc(-c2nc(C(=O)NCc3ccccc3Cl)c(N)nc2-c2ccc(F)cc2)cc(C)n1` [Example 79, 3-amino-N-(2-chlorobenzyl)-6-(2,6-dimethylpyridin-4-yl)-5-(4-fluorophenyl) pyrazine-2-carboxamide], the half-inhibitory concentration (IC50) in assay [1] (setting [2]) was 597 nM; on hA2a/CHO (setting [3]), 33 nM; at mA2a/CHO (setting [4]), 540 nM; on hA2b/CHO (setting [5]) it was no less than 10000 nM.

As for `Cc1nc(CNC(=O)c2nc(-c3ccc4nccn4c3)c(-c3ncco3)nc2N)cs1` [Example 44, 3-amino-6-(imidazo[1,2-a]pyridin-6-yl)-N-((2-methylthiazol-4-yl)methyl)-5-(oxazol-2-yl)pyrazine-2-carboxamide], the IC50 in assay [1] (setting [2]) came out at 10000 nM; on hA2a/CHO (setting [3]), 131 nM; at mA2a/CHO (setting [4]), 786 nM; at hA2b/CHO (setting [5]) it was 2110 nM.

Consider `Cc1cnc2ccc(-c3nc(C(=O)NCCN(C)C)c(N)nc3-c3ncco3)cn12` [Example 153, 3-amino-N-(2-(dimethylamino)ethyl)-6-(3-methylimidazo[1,2-a]pyridin-6-yl)-5-(oxazol-2-yl)pyrazine-2-carboxamide], for which the half-inhibitory concentration (IC50) amounted to 10000 nM in assay [1] (setting [2]), 19 nM at hA2a/CHO (setting [3]), 120 nM on mA2a/CHO (setting [4]) and 592 nM on hA2b/CHO (setting [5]).

For `CC(O)Cn1cc(-c2nc(C(=O)NCc3c(F)cccc3F)c(N)nc2-c2ncco2)ccc1=O` (single isomer, unassigned) [Example 107, 3-amino-N-(2,6-difluorobenzyl)-6-(1-(2-hydroxypropyl)-6-oxo-1,6-dihydropyridin-3-yl)-5-(oxazol-2-yl)pyrazine-2-carboxamide], the IC50 stood at 341 nM in assay [1] (setting [2]), 76 nM at hA2a/CHO (setting [3]), 166 nM at mA2a/CHO (setting [4]) and 3490 nM on hA2b/CHO (setting [5]).

As for `Cc1ccc(-c2nc(N)c(CNC(=O)c3c(F)cccc3F)nc2-c2ccc(=O)n(C)c2)o1` [Example 4, N-((3-amino-6-(1-methyl-6-oxo-1,6-dihydropyridin-3-yl)-5-(5-methylfuran-2-yl)pyrazin-2-yl)methyl)-2,6-difluorobenzamide], the 50% inhibitory concentration (IC50) was determined as 18 nM in assay [1] (setting [2]), 15 nM at hA2a/CHO (setting [3]), 43 nM at mA2a/CHO (setting [4]) and 1220 nM on hA2b/CHO (setting [5]).

On to `Cn1cnc2ccc(-c3nc(C(=O)NCc4ncccc4OCC(N)=O)c(N)nc3-c3ccc(F)cc3)cc21` [Example 119, 3-amino-N-[[3-(carbamoylmethoxy)pyridin-2-yl]methyl]-5-(4-fluorophenyl)-6-(1-methyl-1H-1,3-benzodiazol-6-yl)pyrazine-2-carboxamide], for which the half-maximal inhibitory concentration (IC50) came out at 41 nM in assay [1] (setting [2]), 1.1 nM at hA2a/CHO (setting [3]), 4.7 nM on mA2a/CHO (setting [4]) and 31 nM at hA2b/CHO (setting [5]).

Regarding `CNc1cccc(CNC(=O)c2nc(-c3ccc4nccn4c3)c(-c3ncco3)nc2N)n1` [Example 99, 3-amino-6-(imidazo[1,2-a]pyridin-6-yl)-N-((6-(methylamino)pyridin-2-yl)methyl)-5-(oxazol-2-yl)pyrazine-2-carboxamide], the IC50 in assay [1] (setting [2]) was determined as 171 nM; at hA2a/CHO (setting [3]), 5.1 nM; on mA2a/CHO (setting [4]) it was 35 nM; on hA2b/CHO (setting [5]), 200 nM.

As for `COc1ccccc1CNC(=O)c1nc(-c2cc(C)nc(C)c2)c(-n2cccn2)nc1N` [Example 56, 3-amino-6-(2,6-dimethylpyridin-4-yl)-N-(2-methoxybenzyl)-5-(1H-pyrazol-1-yl)pyrazine-2-carboxamide], the concentration for half-maximal inhibition (IC50) in assay [1] (setting [2]) is 940 nM; on hA2a/CHO (setting [3]), 28 nM; at mA2a/CHO (setting [4]) it was 623 nM; on hA2b/CHO (setting [5]), no less than 10000 nM.

Regarding `CN(C)CCOc1cccnc1CNC(=O)c1nc(-c2ccc3ncn(C)c3c2)c(-c2ccc(F)cc2)nc1N` [Example 116, 3-amino-N-([3-[2-(dimethylamino)ethoxy]pyridin-2-yl]methyl)-5-(4-fluorophenyl)-6-(1-methyl-1H-1,3-benzodiazol-6-yl)pyrazine-2-carboxamide], the IC50 in assay [1] (cAMP & FLIPR IC50 (nM) hA1, FLIPR inhibition) turned out to be 61 nM; on hA2a/CHO (cAMP & FLIPR IC50 (nM) hA2a), 9.6 nM; against mA2a/CHO (cAMP & FLIPR IC50 (nM) mA2a), 17 nM; against hA2b/CHO (cAMP & FLIPR IC50 (nM) hA2b), 6020 nM.

Take `CNCCOc1cccnc1CNC(=O)c1nc(-c2ccc3ncc(C)n3c2)c(-c2ccc(F)cc2)nc1N` [Cmpd. 199, 3-amino-5-(4-fluorophenyl)-N-([3-[2-(methylamino)ethoxy]pyridin-2-yl]methyl)-6-[3-methylimidazo[1,2-a]pyridin-6-yl]pyrazine-2-carboxamide]: the IC50 in assay [1] (setting [2]) was determined as 34 nM; at hA2a/CHO (setting [3]), 0.7 nM; at mA2a/CHO (setting [4]), 1.6 nM; on hA2b/CHO (setting [5]) it was 102 nM.

Consider `Cc1cnc2ccc(-c3nc(C(=O)NCc4cnccc4N(C)C)c(N)nc3-c3ncco3)cn12` [Example 118, 3-amino-N-((4-(dimethylamino)pyridin-3-yl)methyl)-6-(3-methylimidazo[1,2-a]pyridin-6-yl)-5-(oxazol-2-yl)pyrazine-2-carboxamide], for which the IC50 in assay [1] (setting [2]) was determined as 35 nM; at hA2a/CHO (setting [3]), 3.1 nM; on mA2a/CHO (setting [4]), 1.7 nM; at hA2b/CHO (setting [5]), 6.8 nM.

In the case of `Cc1cccc(CNC(=O)c2nc(-c3ccc(=O)n(C)c3)c(-c3ncco3)nc2N)n1` [Example 18, 3-amino-6-(1-methyl-6-oxo-1,6-dihydropyridin-3-yl)-N-[(6-methylpyridin-2-yl)methyl]-5-(1,3-oxazol-2-yl)pyrazine-2-carboxamide], the IC50 in assay [1] (setting [2]) is 1150 nM; on hA2a/CHO (setting [3]) it was 105 nM; at mA2a/CHO (setting [4]), 116 nM; on hA2b/CHO (setting [5]), no less than 10000 nM.

As for `Cc1cnc2ccc(-c3nc(C(=O)NCC4(C)CCCN4C)c(N)nc3-c3ncco3)cn12` (single isomer, unassigned; isomer 2) [Example 247, 3-amino-N-((1,2-dimethylpyrrolidin-2-yl)methyl)-6-(3-methylimidazo[1,2-a]pyridin-6-yl)-5-(oxazol-2-yl)pyrazine-2-carboxamide (isomer 2)], the concentration for half-maximal inhibition (IC50) in assay [1] (setting [2]) was 1490 nM; on hA2a/CHO (setting [3]), 36 nM; on mA2a/CHO (setting [4]) it was 345 nM; on hA2b/CHO (setting [5]) it was 2000 nM.

A word on the IC50: it is the midpoint of a concentration-inhibition curve.
